Measurements reported in patent publication US20040096520A1, “Manganese compositions for reducing/preventing skin wrinkles and fine lines” (SOCIETE L'OREAL S.A., priority 2000, published 2004).

System: phrenic nerve/isolated diaphragm preparation
Settings: 10^−3 M; contractions induced by indirect stimulation via the phrenic nerve (0.1 to 7 volts, 0.3 ms, 0.1 Hz); cumulative concentrations
Description: Activity of manganese gluconate and of manganese chloride in a model of nerve/muscle junction (motor plate) obtained in a phrenic nerve/isolated diaphragm preparation: investigation of a myorelaxant effect:
The phrenic nerve and the diaphragm were carefully isolated and placed in a 50 ml tank filled with survival fluid (Krebs Henseleit liquid) maintained at a temperature of 37° C. and oxygenated with a mixture of 95% oxygen and 5% CO2.
The variations in the tension of the diaphragm were then recorded with an initial preloading of several grams.
After a relaxation period of 30 min., the diaphragm was stimulated indirectly via the phrenic nerve.
On each preparation, the effect of the test products was evaluated, in a first stage, on the contractions induced by indirect stimulation via stimulation of the phrenic nerve (0.1 to 7 volts, 0.3 ms, 0.1 Hz) at increasing and cumulative concentrations from 10^−6 M to 10^−3 M.

manganese gluconate was tested, and the “% of inhibition (indirect stimulation)” value was 25%.

With manganese chloride [MnCl2] the “% of inhibition (indirect stimulation)” value was 10%.
